Results published in patent US20190216761A1, “COMPOSITIONS COMPRISING 15-HEPE AND METHODS OF USING THE SAME” (Afimmune Limited, priority 2015, published 2019).
Numbering of substitutions follows the chain as printed. Marks after values point to notes of the source that are not given here.

Assays:
hPPARγ [1] = biological target: T1, hPPARγ (Homo sapiens, UniProt P37231); assay: PPAR agonist reporter assay (Gal4 hybrid receptor, luciferase); assay type: cell-based
T1 construct: expressed in transfected cells
T1 sequence (P37231 238-503 limits assumed): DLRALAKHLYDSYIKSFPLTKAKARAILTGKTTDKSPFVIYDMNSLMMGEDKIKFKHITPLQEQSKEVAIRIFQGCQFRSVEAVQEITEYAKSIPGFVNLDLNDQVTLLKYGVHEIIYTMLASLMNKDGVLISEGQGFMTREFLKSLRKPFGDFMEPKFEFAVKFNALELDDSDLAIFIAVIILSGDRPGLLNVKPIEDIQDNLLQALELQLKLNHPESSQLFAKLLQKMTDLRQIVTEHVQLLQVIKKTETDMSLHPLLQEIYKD
Method: (§1) This study utilized proprietary reporter cells expressing a hybrid receptor comprising the N-terminal Gal4 DNA binding domain fused to the ligand binding domain of the specific human nuclear receptor (hPPARα, hPPARδ, and hPPARγ) and rat nuclear receptor (rPPARα, rPPARδ, and rPPARγ). The reporter vectors used in this Example comprise the firefly luciferase gene functionally linked to the Gal4 upstream activation sequence.
(§2) Nuclear Receptor assay was performed by dispensing 100 μL of a suspension of Reporter Cells in Cell Recovery Medium (CRM) containing 10% charcoal stripped FBS into each well of a white 96-well plate. Test compounds were diluted using compound screening medium (CSM) containing 10% charcoal stripped FBS to generate “2×-concentration” treatment media. Immediately after this dilution step, 100 μL of each diluted 2×-concentration treatment medium was dispensed (in triplicate) into the Reporter Cell-containing assay wells.
(§3) After incubation at 37° C. for 24 hours, the treatment media was discarded. 100 μL of Luciferase Detection Reagent substrate was added to each well and RLUs were quantified from each well to determine nuclear receptor activities.

hPPARδ = biological target: T2, hPPARδ (Homo sapiens, UniProt Q03181); assay: as above; assay type: cell-based
T2 construct: expressed in transfected cells
T2 sequence (Q03181 211-439 limits assumed): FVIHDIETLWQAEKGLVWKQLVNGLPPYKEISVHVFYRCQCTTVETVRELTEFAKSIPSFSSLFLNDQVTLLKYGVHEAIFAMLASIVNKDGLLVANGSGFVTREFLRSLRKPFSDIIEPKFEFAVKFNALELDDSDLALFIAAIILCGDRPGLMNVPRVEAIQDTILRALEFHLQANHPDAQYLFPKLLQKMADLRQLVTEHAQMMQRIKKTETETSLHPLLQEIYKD
Method: as §1, §2, §3

rPPARα = biological target: T3, rPPARα (Rattus norvegicus, UniProt P37230); assay: as above; assay type: cell-based
T3 construct: expressed in transfected cells
T3 sequence (P37230 239-466 limits assumed): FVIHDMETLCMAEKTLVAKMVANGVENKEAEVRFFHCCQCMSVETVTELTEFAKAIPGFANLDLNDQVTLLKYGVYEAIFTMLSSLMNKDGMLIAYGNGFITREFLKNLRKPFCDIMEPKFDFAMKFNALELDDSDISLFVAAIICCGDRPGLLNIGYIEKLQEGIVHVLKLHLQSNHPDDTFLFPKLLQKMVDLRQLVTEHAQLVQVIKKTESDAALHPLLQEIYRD
Method: as §1, §2, §3

rPPARγ [2] = biological target: T4, rPPARγ (Rattus norvegicus, UniProt O88275); assay: as above; assay type: cell-based
T4 construct: expressed in transfected cells
T4 sequence (O88275 238-503 limits assumed): T1 sequence (P37231 238-503 limits assumed) with S93N, V98I, L226V, Q245H
Method: as §1, §2, §3

rPPARδ = assay: as above; assay type: cell-based, rat
Method: as §1, §2, §3

hPPARγ [3] = biological target: T1, hPPARγ; assay: PPAR antagonist reporter assay (reference agonist at EC80); assay type: cell-based
Method: as §1
(§4) Nuclear Receptor assay was performed by suspending Reporter Cells in CRM containing 10% charcoal stripped FBS. 2×-EC80 concentrations of the appropriate reference agonist were then added to the Reporter Cell suspension, and 100 μL of the mixture dispensed into wells of a white 96-well plate. Test compounds were diluted using compound screening medium (CSM) containing 10% charcoal stripped FBS to generate “2×-concentration” treatment media. Immediately after this dilution step, 100 μL of each diluted 2×-concentration treatment medium was dispensed (in triplicate) into the Reporter Cell-containing assay wells.
(§5) After incubation at 37° C. for 24 hours, the treatment media was discarded. Each well was rinsed once with LCM Buffer; LCM substrate was then added. After incubation for 30 minutes at 37° C., fluorescence was measured to determine the relative number of live cells per assay well. LCM substrate was then discarded and 100 μL of Luciferase Detection Reagent substrate was added to each well. RLUs were quantified from each well to determine nuclear receptor activities.

rPPARγ [4] = biological target: T4, rPPARγ; assay: as above; assay type: cell-based
Method: as §1, §4, §5

[5] = at low to higher doses in the dose response curve
[6] = at medium to higher doses in the dose response curve

Fold-Activation (vs. 0.10% DMSO) hPPAR-γ (hPPARγ [1]; 137 nM): 1.0 fold | Fold-Activation (vs. 0.10% DMSO) hPPAR-γ (hPPARγ [1]; 412 nM): 1.1 fold | Fold-Activation (vs. 0.10% DMSO) hPPAR-γ (hPPARγ [1]; 1,235 nM): 1.3 fold | Fold-Activation (vs. 0.10% DMSO) hPPAR-γ (hPPARγ [1]; 3,704 nM): 1.5 fold | Fold-Activation (vs. 0.10% DMSO) hPPAR-γ (hPPARγ [1]; 11,111 nM): 2.1* fold | Fold-Activation (vs. 0.10% DMSO) hPPAR-γ (hPPARγ [1]; 33,333 nM): 3.6* fold | Fold-Activation (vs. 0.10% DMSO) hPPAR-γ (hPPARγ [1]; 100,000 nM): 6.1* fold | Fold-Activation (vs. 0.10% DMSO) hPPAR-γ (hPPARγ [1]; 300,000 nM): 0.027 fold | agonism activity against human PPARγ (in words) (hPPARγ [1]; [5]): moderate agonism activity | Fold-Activation (vs. 0.10% DMSO) hPPAR-δ (hPPARδ; 137 nM): 1.4 fold | Fold-Activation (vs. 0.10% DMSO) hPPAR-δ (hPPARδ; 412 nM): 2.1* fold | Fold-Activation (vs. 0.10% DMSO) hPPAR-δ (hPPARδ; 1,235 nM): 2.1* fold | Fold-Activation (vs. 0.10% DMSO) hPPAR-δ (hPPARδ; 3,704 nM): 2.4* fold | Fold-Activation (vs. 0.10% DMSO) hPPAR-δ (hPPARδ; 11,111 nM): 5.6* fold | Fold-Activation (vs. 0.10% DMSO) hPPAR-δ (hPPARδ; 33,333 nM): 4.1* fold | Fold-Activation (vs. 0.10% DMSO) hPPAR-δ (hPPARδ; 100,000 nM): 8.0* fold | Fold-Activation (vs. 0.10% DMSO) hPPAR-δ (hPPARδ; 300,000 nM): 0.073 fold | agonism activity against human PPARδ (in words) (hPPARδ; [5]): moderate agonism activity | Fold-Activation (vs. 0.10% DMSO) rPPAR-α (rPPARα; 137 nM): 1.1 fold | Fold-Activation (vs. 0.10% DMSO) rPPAR-α (rPPARα; 412 nM): 1.2 fold | Fold-Activation (vs. 0.10% DMSO) rPPAR-α (rPPARα; 1,235 nM): 1.2 fold | Fold-Activation (vs. 0.10% DMSO) rPPAR-α (rPPARα; 3,704 nM): 1.4 fold | Fold-Activation (vs. 0.10% DMSO) rPPAR-α (rPPARα; 11,111 nM): 1.7 fold | Fold-Activation (vs. 0.10% DMSO) rPPAR-α (rPPARα; 33,333 nM): 2.6* fold | Fold-Activation (vs. 0.10% DMSO) rPPAR-α (rPPARα; 100,000 nM): 1.4 fold | Fold-Activation (vs. 0.10% DMSO) rPPAR-α (rPPARα; 300,000 nM): 0.068 fold | agonism activity against rat PPARα (in words) (rPPARα; [6]): mild to moderate agonism activity | Fold-Activation (vs. 0.10% DMSO) rPPAR-γ (rPPARγ [2]; 137 nM): 1.2 fold | Fold-Activation (vs. 0.10% DMSO) rPPAR-γ (rPPARγ [2]; 412 nM): 1.2 fold | Fold-Activation (vs. 0.10% DMSO) rPPAR-γ (rPPARγ [2]; 1,235 nM): 1.4 fold | Fold-Activation (vs. 0.10% DMSO) rPPAR-γ (rPPARγ [2]; 3,704 nM): 1.4 fold | Fold-Activation (vs. 0.10% DMSO) rPPAR-γ (rPPARγ [2]; 11,111 nM): 1.8 fold | Fold-Activation (vs. 0.10% DMSO) rPPAR-γ (rPPARγ [2]; 33,333 nM): 3.5* fold | Fold-Activation (vs. 0.10% DMSO) rPPAR-γ (rPPARγ [2]; 100,000 nM): 10* fold | Fold-Activation (vs. 0.10% DMSO) rPPAR-γ (rPPARγ [2]; 300,000 nM): 14* fold | agonism activity against rat PPARγ (in words) (rPPARγ [2]; [6]): mild to moderate agonism activity | Fold-Activation (vs. 0.10% DMSO) rPPAR-δ (rPPARδ; 137 nM): 1.3 fold | Fold-Activation (vs. 0.10% DMSO) rPPAR-δ (rPPARδ; 412 nM): 1.5 fold | Fold-Activation (vs. 0.10% DMSO) rPPAR-δ (rPPARδ; 1,235 nM): 1.6 fold | Fold-Activation (vs. 0.10% DMSO) rPPAR-δ (rPPARδ; 3,704 nM): 1.8 fold | Fold-Activation (vs. 0.10% DMSO) rPPAR-δ (rPPARδ; 11,111 nM): 2.4* fold | Fold-Activation (vs. 0.10% DMSO) rPPAR-δ (rPPARδ; 33,333 nM): 2.7* fold | Fold-Activation (vs. 0.10% DMSO) rPPAR-δ (rPPARδ; 100,000 nM): 7.2* fold | Fold-Activation (vs. 0.10% DMSO) rPPAR-δ (rPPARδ; 300,000 nM): 1.9 fold | agonism activity against rat PPARδ (in words) (rPPARδ; [6]): mild to moderate agonism activity | % Inhibition of agonist-stimulated receptor activity vs. 0.10% DMSO, hPPAR-γ (hPPARγ [3]; 137 nM): 17% | % Inhibition of agonist-stimulated receptor activity vs. 0.10% DMSO, hPPAR-γ (hPPARγ [3]; 412 nM): 0.87% | % Inhibition of agonist-stimulated receptor activity vs. 0.10% DMSO, hPPAR-γ (hPPARγ [3]; 1,235 nM): −1.4% | % Inhibition of agonist-stimulated receptor activity vs. 0.10% DMSO, hPPAR-γ (hPPARγ [3]; 3,704 nM): −4.6% | % Inhibition of agonist-stimulated receptor activity vs. 0.10% DMSO, hPPAR-γ (hPPARγ [3]; 11,111 nM): −0.42% | % Inhibition of agonist-stimulated receptor activity vs. 0.10% DMSO, hPPAR-γ (hPPARγ [3]; 33,333 nM): 5.2% | % Inhibition of agonist-stimulated receptor activity vs. 0.10% DMSO, hPPAR-γ (hPPARγ [3]; 100,000 nM): 44% | % Inhibition of agonist-stimulated receptor activity vs. 0.10% DMSO, hPPAR-γ (hPPARγ [3]; 300,000 nM): 100% | inhibition of human PPARs (in words), hPPARγ (hPPARγ [3]; at higher test concentrations): apparent inhibition | % Inhibition of agonist-stimulated receptor activity vs. 0.10% DMSO, rPPAR-γ (rPPARγ [4]; 137 nM): 10% | % Inhibition of agonist-stimulated receptor activity vs. 0.10% DMSO, rPPAR-γ (rPPARγ [4]; 412 nM): −13% | % Inhibition of agonist-stimulated receptor activity vs. 0.10% DMSO, rPPAR-γ (rPPARγ [4]; 1,235 nM): −7.6% | % Inhibition of agonist-stimulated receptor activity vs. 0.10% DMSO, rPPAR-γ (rPPARγ [4]; 3,704 nM): −6.7% | % Inhibition of agonist-stimulated receptor activity vs. 0.10% DMSO, rPPAR-γ (rPPARγ [4]; 11,111 nM): −4.1% | % Inhibition of agonist-stimulated receptor activity vs. 0.10% DMSO, rPPAR-γ (rPPARγ [4]; 33,333 nM): 8.4% | % Inhibition of agonist-stimulated receptor activity vs. 0.10% DMSO, rPPAR-γ (rPPARγ [4]; 100,000 nM): 26% | % Inhibition of agonist-stimulated receptor activity vs. 0.10% DMSO, rPPAR-γ (rPPARγ [4]; 300,000 nM): 93% | inhibition of rat PPARs (in words), rPPARγ (rPPARγ [4]; at higher test concentrations): apparent inhibition
Compound: CC/C=C\C[C@H](O)/C=C/C=C\C/C=C\C/C=C\CCCC(=O)OCC [15-HEPE-EE, 15-HEPE ethyl ester]
